For experiment [1], the target named is T1, S. pneumoniae DHFR (Streptococcus pneumoniae serotype 4, UniProt Q54801, A78V/I100L/K60Q/V77A).
T1 sequence (Q54801 1-168 K60Q/V77A/A78V/I100L): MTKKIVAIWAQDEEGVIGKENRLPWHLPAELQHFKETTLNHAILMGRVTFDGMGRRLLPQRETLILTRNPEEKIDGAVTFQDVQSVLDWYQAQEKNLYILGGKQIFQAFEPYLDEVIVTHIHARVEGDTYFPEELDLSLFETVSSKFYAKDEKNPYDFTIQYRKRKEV
As to conditions: pH 7.0, MTEN buffer, 25 °C.

Experiment [2] has as its target Sp9 mutant DHFR (Streptococcus pneumoniae serotype 4, UniProt Q54801, A149T/E133A/H26Y/I100V/Q81H/Q91S). The note with it: pH 7.0, MTEN buffer, 25 °C.
Experiment [3] has as its system E. coli DHFR. The note with it: cited from earlier work.
Experiment [4] concerns the target T1, S. pneumoniae DHFR. Nature of the experiment: Equilibrium fluorescence quenching titration, spDHFR. Format: binding. As to conditions: read-out: Kd (NADPH), pH 7.0, MTEN buffer.
Experiment [5] addresses T2, Sp9 mutant DHFR (Streptococcus pneumoniae serotype 4, UniProt Q54801, A149T/E133A/H26Y/I100V/Q81H/Q91S).
T2 sequence (Q54801 1-168 H26Y/Q81H/Q91S/I100V/E133A/A149T): T1 sequence (Q54801 1-168 K60Q/V77A/A78V/I100L) with H26Y, Q60K, A77V, V78A, Q81H, Q91S, L100V, E133A, A149T
The experiment is described as follows: Equilibrium fluorescence quenching titration, Sp9. The class given is binding. As to conditions: read-out: Kd (NADPH), pH 7.0, MTEN buffer.

In experiment [6] the target is T1, S. pneumoniae DHFR. The experiment is described as follows: Stopped-flow binding kinetics. The note with it: MTEN buffer, 25 °C, relaxation method.
A further experiment concerns E. coli DHFR (wt). As to conditions: read-out: Kd (NADPH); pH 7.0; cited from earlier work.
The test system of experiment [7] is E. coli DHFR. As to conditions: cited from earlier work. This is another data set of the same source.
In the next experiment the test system is Bacterial DHFRs. The note with it: cited from earlier work.

Residue numbers refer to the chain shown, from its start. Like-named read-outs stand apart in the source and are kept apart here. Marks after values point to notes of the source that are not given here.

Regarding `Nc1nc(=O)c2c([nH]1)NCC(CNc1ccc(C(=O)N[C@@H](CCC(=O)O)C(=O)O)cc1)=N2` [H2F, 7,8-dihydrofolate], the Km on S. pneumoniae DHFR [1] (read-out: KM (H2F)) was 4.4 ± 0.95 µM; on Sp9 mutant DHFR [2] (read-out: KM (H2F)) it was less than 630 nM; in the experiment with E. coli DHFR [3] (read-out: KM (H2F)), 700 nM.
With `NC(=O)C1=CN([C@@H]2O[C@H](COP(=O)(O)OP(=O)(O)OC[C@H]3O[C@@H](n4cnc5c(N)ncnc54)[C@H](OP(=O)(O)O)[C@@H]3O)[C@@H](O)[C@H]2O)C=CC1` [NADPH, nicotinamide adenine dinucleotide phosphate (reduced form)], the Kd at S. pneumoniae DHFR [4] was 210 ± 13 nM; at Sp9 mutant DHFR [5], 160 ± 58 nM; in the experiment on E. coli DHFR (wt), 330 nM. For the same compound, the “koff (NADPH)” value is 18.0 ± 3.2 s⁻¹ on S. pneumoniae DHFR [6] and 3.5 ^* s^−1 in the experiment on E. coli DHFR [7]. For the same compound, the “kon (NADPH)” value is given as 11.9 ± 1.4 μM ^−1s^−1 on S. pneumoniae DHFR [6] and 20.0 ^* μM ^−1s^−1 with E. coli DHFR [7]. Besides, the Michaelis-Menten constant (Km) is 15.7 ± 4.6 µM on S. pneumoniae DHFR [1] (read-out: KM (NADPH)), 750 ± 300 nM at Sp9 mutant DHFR [2] (read-out: KM (NADPH)) and 4800 nM with E. coli DHFR [3] (read-out: KM (NADPH)).
In the case of `COc1cc(Cc2cnc(N)nc2N)cc(OC)c1OC` [Trimethoprim], the TMP binding with Bacterial DHFRs (bacterial DHFRs) is 0.08 nM. In addition, in the experiment on Bacterial DHFRs (bacterial versus human DHFR), the “tighter binding to bacterial DHFRs than human DHFR” value is recorded as 2500 fold.

As usually defined, the Km is the substrate concentration at which the rate is half of its maximum. What is called Kd is the equilibrium constant for the complex coming apart.
